Source: ChEMBL document CHEMBL6096717, “Novel 3-Pyrrolidineindole Derivatives as Serotonergic Psychedelic Agents for Treating Psychosis and Mental Illnesses Such as Depression and Post-Traumatic Stress Disorder” (ACS Med Chem Lett, 2025)

The molecules below were run against 5-hydroxytryptamine receptor 2A (Homo sapiens, UniProt P28223) (assay: Displacement of [3H]-ketanserin from human 5HT2A receptor incubated for 90 mins by Microbeta2 scintillation counting analysis).
Sequence of 5-hydroxytryptamine receptor 2A (P28223 whole entry): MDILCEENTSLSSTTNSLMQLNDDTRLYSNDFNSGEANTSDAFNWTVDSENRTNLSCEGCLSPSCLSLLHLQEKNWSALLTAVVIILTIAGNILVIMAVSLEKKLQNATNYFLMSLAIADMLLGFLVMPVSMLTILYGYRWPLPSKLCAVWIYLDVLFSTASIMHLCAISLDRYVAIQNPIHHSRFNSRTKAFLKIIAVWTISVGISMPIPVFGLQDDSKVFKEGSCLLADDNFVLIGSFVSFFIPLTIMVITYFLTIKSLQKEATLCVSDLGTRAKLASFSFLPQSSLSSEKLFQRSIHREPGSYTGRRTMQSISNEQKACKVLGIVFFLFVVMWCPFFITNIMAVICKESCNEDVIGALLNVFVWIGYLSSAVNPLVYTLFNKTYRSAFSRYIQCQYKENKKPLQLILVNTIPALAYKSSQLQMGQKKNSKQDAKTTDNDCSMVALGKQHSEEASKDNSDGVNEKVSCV
In the case of [2H]C([2H])(c1c[nH]c2cccc(O)c12)[C@H]1CCCN1C([2H])([2H])[2H], the IC50 is reported as < 500 nM.
In the case of [2H]C([2H])([2H])N1CCC[C@@H]1Cc1c[nH]c2cccc(OC(=O)CCCCCCC/C=C\C/C=C\CCCC)c12, the IC50 is reported as < 500 nM.
With [2H]C([2H])(c1c[nH]c2cccc(Cl)c12)[C@H]1CCCN1C([2H])([2H])[2H] the IC50 was < 500 nM.
[2H]C([2H])([2H])N1CCC[C@@H]1Cc1c[nH]c2cccc(O)c12 was tested, and the IC50 was < 500 nM.
In the case of [2H]C([2H])(c1c[nH]c2cccc(OC(=O)CCCCCCC/C=C\C/C=C\CCCC)c12)[C@H]1CCCN1C([2H])([2H])[2H], the IC50 is reported as < 500 nM.
[2H]C([2H])([2H])N1CCC[C@@H]1Cc1c[nH]c2cccc(F)c12 was tested, and the IC50 was < 500 nM.
